System: 299254-011-R-J1-PDC complex spheroids viability
Experiment: Anticancer human tumor 299254-011-R-J1-PDC patient-derived melanoma cell line growth inhibition [GQUAD]
Conditions: for IC50: curve of first compound; for viability, T/C: stronger effect = lower value
How it was run: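 Tumor cells were grown as complex spheroids with HUVEC endothelial cells and mesenchymal stem cells as stroma. G-quadruplex stabilizers were combined with targeted agents over half-log dilutions from near the clinical Cmax, or from 10 microM.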

[1] = second compound 0.0316 µM, first compound 0.0316 µM
[2] = second compound 0.0316 µM, first compound 0.1 µM
[3] = second compound 0.0316 µM, first compound 0.316 µM
[4] = second compound 0.0316 µM, first compound 1 µM
[5] = second compound 0.0316 µM, first compound 3.16 µM
[6] = second compound 0.0316 µM, first compound 10 µM
[7] = second compound 0.1 µM, first compound 0.0316 µM
[8] = second compound 0.1 µM, first compound 0.1 µM
[9] = second compound 0.1 µM, first compound 0.316 µM
[10] = second compound 0.1 µM, first compound 1 µM
[11] = second compound 0.1 µM, first compound 3.16 µM
[12] = second compound 0.1 µM, first compound 10 µM
[13] = second compound 0.316 µM, first compound 0.0316 µM
[14] = second compound 0.316 µM, first compound 0.1 µM
[15] = second compound 0.316 µM, first compound 0.316 µM
[16] = second compound 0.316 µM, first compound 1 µM
[17] = second compound 0.316 µM, first compound 3.16 µM
[18] = second compound 0.316 µM, first compound 10 µM
[19] = second compound 1 µM, first compound 0.0316 µM
[20] = second compound 1 µM, first compound 0.1 µM
[21] = second compound 1 µM, first compound 0.316 µM
[22] = second compound 1 µM, first compound 1 µM
[23] = second compound 1 µM, first compound 3.16 µM
[24] = second compound 1 µM, first compound 10 µM
[25] = second compound 3.16 µM, first compound 0.0316 µM
[26] = second compound 3.16 µM, first compound 0.1 µM
[27] = second compound 3.16 µM, first compound 0.316 µM
[28] = second compound 3.16 µM, first compound 1 µM
[29] = second compound 3.16 µM, first compound 3.16 µM
[30] = second compound 3.16 µM, first compound 10 µM
[31] = second compound 10 µM, first compound 0.0316 µM
[32] = second compound 10 µM, first compound 0.1 µM
[33] = second compound 10 µM, first compound 0.316 µM
[34] = second compound 10 µM, first compound 1 µM
[35] = second compound 10 µM, first compound 3.16 µM
[36] = second compound 10 µM, first compound 10 µM
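Also: spheroids exposed to the agents for seven days before readout.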
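For viability, T/C in this document: percent viability relative to DMSO vehicle control wells = 100%.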

`CC(=O)O[C@H]1C(=O)[C@@]2(C)[C@H]([C@H](OC(=O)c3ccccc3)[C@]3(O)C[C@H](OC(=O)[C@H](O)[C@@H](NC(=O)c4ccccc4)c4ccccc4)C(C)=C1C3(C)C)[C@]1(OC(C)=O)CO[C@@H]1C[C@@H]2O` + Cc1cnc(CNC(=O)c2c(=O)c3ccc(N4CCCN(C)CC4)nc3n3c2sc2ccccc23)cn1 showed an IC50 (second compound 0.0316 µM) of 412 nM, an IC50 (second compound 0.1 µM) of 243 nM and an IC50 (second compound 0.316 µM) of 273 nM. It also gave an IC50 (second compound 1 µM) of 169 nM, an IC50 (second compound 3.16 µM) of 205 nM and an IC50 (second compound 10 µM) of less than 31.6 nM. It also gave a viability, T/C [1] of 90%, a viability, T/C [2] of 77.5% and a viability, T/C [3] of 58.8%. It also gave a viability, T/C [4] of 23.7%, a viability, T/C [5] of 26.8% and a viability, T/C [6] of 23%. For the same molecule, the viability, T/C [7] was 114%, the viability, T/C [8] was 89.2% and the viability, T/C [9] was 38.1%. It also gave a viability, T/C [10] of 29.3%, a viability, T/C [11] of 29.1% and a viability, T/C [12] of 23.3%. For the same molecule, the viability, T/C [13] was 94.4%, the viability, T/C [14] was 75.1% and the viability, T/C [15] was 44.9%. For the same molecule, the viability, T/C [16] was 32.1%, the viability, T/C [17] was 24.1% and the viability, T/C [18] was 22.7%. The viability, T/C [19] was 67.6%, the viability, T/C [20] was 62.8% and the viability, T/C [21] was 34.6%. For the same molecule, the viability, T/C [22] was 30.8%, the viability, T/C [23] was 24.9% and the viability, T/C [24] was 27.1%. It also gave a viability, T/C [25] of 57.7%, a viability, T/C [26] of 58% and a viability, T/C [27] of 43.6%. For the same molecule, the viability, T/C [28] was 39.8%, the viability, T/C [29] was 25.6% and the viability, T/C [30] was 29.2%. For the same molecule, the viability, T/C [31] was 0.42%, the viability, T/C [32] was 0.39% and the viability, T/C [33] was 0.41%. It also gave a viability, T/C [34] of 0.35%, a viability, T/C [35] of 0.4% and a viability, T/C [36] of 0.34%.

`CC[C@@]1(O)C(=O)OCc2c1cc1n(c2=O)Cc2cc3c(CN(C)C)c(O)ccc3nc2-1` + Cc1cnc(CNC(=O)c2c(=O)c3ccc(N4CCCN(C)CC4)nc3n3c2sc2ccccc23)cn1 showed an IC50 (second compound 0.0316 µM) greater than 316 nM, an IC50 (second compound 0.1 µM) greater than 316 nM and an IC50 (second compound 0.316 µM) greater than 316 nM. It also gave an IC50 (second compound 1 µM) greater than 316 nM, an IC50 (second compound 3.16 µM) greater than 316 nM and an IC50 (second compound 10 µM) of less than 0.999 nM. The viability, T/C (second compound 0.0316 µM, first compound 0.000999 µM) was 127%, the viability, T/C (second compound 0.0316 µM, first compound 0.00316 µM) was 86.3% and the viability, T/C (second compound 0.0316 µM, first compound 0.00999 µM) was 96.4%. For the same molecule, the viability, T/C [1] was 86.7%, the viability, T/C (second compound 0.0316 µM, first compound 0.0999 µM) was 98.5% and the viability, T/C [3] was 81.3%. For the same molecule, the viability, T/C (second compound 0.1 µM, first compound 0.000999 µM) was 87.5%, the viability, T/C (second compound 0.1 µM, first compound 0.00316 µM) was 116% and the viability, T/C (second compound 0.1 µM, first compound 0.00999 µM) was 81.8%. It also gave a viability, T/C [7] of 101%, a viability, T/C (second compound 0.1 µM, first compound 0.0999 µM) of 88.2% and a viability, T/C [9] of 73.8%. It also gave a viability, T/C (second compound 0.316 µM, first compound 0.000999 µM) of 106%, a viability, T/C (second compound 0.316 µM, first compound 0.00316 µM) of 92.8% and a viability, T/C (second compound 0.316 µM, first compound 0.00999 µM) of 103%. It also gave a viability, T/C [13] of 84.9%, a viability, T/C (second compound 0.316 µM, first compound 0.0999 µM) of 92.4% and a viability, T/C [15] of 82.2%. The viability, T/C (second compound 1 µM, first compound 0.000999 µM) was 76.2%, the viability, T/C (second compound 1 µM, first compound 0.00316 µM) was 79.8% and the viability, T/C (second compound 1 µM, first compound 0.00999 µM) was 89.5%. The viability, T/C [19] was 79.6%, the viability, T/C (second compound 1 µM, first compound 0.0999 µM) was 74.3% and the viability, T/C [21] was 76.6%. The viability, T/C (second compound 3.16 µM, first compound 0.000999 µM) was 80.8%, the viability, T/C (second compound 3.16 µM, first compound 0.00316 µM) was 70.7% and the viability, T/C (second compound 3.16 µM, first compound 0.00999 µM) was 89.9%. It also gave a viability, T/C [25] of 94.5%, a viability, T/C (second compound 3.16 µM, first compound 0.0999 µM) of 77.7% and a viability, T/C [27] of 53.6%. For the same molecule, the viability, T/C (second compound 10 µM, first compound 0.000999 µM) was 0.41%, the viability, T/C (second compound 10 µM, first compound 0.00316 µM) was 16.5% and the viability, T/C (second compound 10 µM, first compound 0.00999 µM) was 49.5%. For the same molecule, the viability, T/C [31] was 36.7%, the viability, T/C (second compound 10 µM, first compound 0.0999 µM) was 0.46% and the viability, T/C [33] was 0.37%.

Molecule `COc1cc(C2c3cc4c(cc3C(OC3OC5COC(C)OC5C(O)C3O)C3COC(=O)C23)OCO4)cc(OC)c1O` (stereo not drawn) + Cc1cnc(CNC(=O)c2c(=O)c3ccc(N4CCCN(C)CC4)nc3n3c2sc2ccccc23)cn1 has an IC50 (second compound 0.0316 µM) greater than 10000 nM, an IC50 (second compound 0.1 µM) greater than 10000 nM and an IC50 (second compound 0.316 µM) greater than 10000 nM. It also gave an IC50 (second compound 1 µM) greater than 10000 nM, an IC50 (second compound 3.16 µM) greater than 10000 nM and an IC50 (second compound 10 µM) of 31.6 nM. The viability, T/C [1] was 105%, the viability, T/C [2] was 121% and the viability, T/C [3] was 84.4%. The viability, T/C [4] was 90.1%, the viability, T/C [5] was 76.7% and the viability, T/C [6] was 86.6%. It also gave a viability, T/C [7] of 112%, a viability, T/C [8] of 95.8% and a viability, T/C [9] of 89%. For the same molecule, the viability, T/C [10] was 87.9%, the viability, T/C [11] was 95.1% and the viability, T/C [12] was 77.7%. It also gave a viability, T/C [13] of 90%, a viability, T/C [14] of 110% and a viability, T/C [15] of 130%. It also gave a viability, T/C [16] of 105%, a viability, T/C [17] of 82.4% and a viability, T/C [18] of 63.5%. The viability, T/C [19] was 90.4%, the viability, T/C [20] was 84.8% and the viability, T/C [21] was 103%. For the same molecule, the viability, T/C [22] was 75.9%, the viability, T/C [23] was 84.9% and the viability, T/C [24] was 61.9%. For the same molecule, the viability, T/C [25] was 78.5%, the viability, T/C [26] was 79.5% and the viability, T/C [27] was 69.1%. It also gave a viability, T/C [28] of 73%, a viability, T/C [29] of 82.4% and a viability, T/C [30] of 59.2%. It also gave a viability, T/C [31] of 31%, a viability, T/C [32] of 16.7% and a viability, T/C [33] of 67.1%. The viability, T/C [34] was 69.8%, the viability, T/C [35] was 33.5% and the viability, T/C [36] was 0.3%.

`O=C(NO)c1cnc(N2CCN(S(=O)(=O)c3ccc4ccccc4c3)CC2)nc1` + Cc1cnc(CNC(=O)c2c(=O)c3ccc(N4CCCN(C)CC4)nc3n3c2sc2ccccc23)cn1 gave an IC50 (second compound 0.0316 µM) of 201 nM, an IC50 (second compound 0.1 µM) of 227 nM and an IC50 (second compound 0.316 µM) of 228 nM. For the same molecule, the IC50 (second compound 1 µM) was 210 nM, the IC50 (second compound 3.16 µM) was 212 nM and the IC50 (second compound 10 µM) was less than 31.6 nM. The viability, T/C [1] was 112%, the viability, T/C [2] was 94.8% and the viability, T/C [3] was 20.9%. For the same molecule, the viability, T/C [4] was 0.93%, the viability, T/C [5] was 0.18% and the viability, T/C [6] was 0.19%. The viability, T/C [7] was 107%, the viability, T/C [8] was 97.8% and the viability, T/C [9] was 30.7%. It also gave a viability, T/C [10] of 1.22%, a viability, T/C [11] of 0.15% and a viability, T/C [12] of 0.24%. It also gave a viability, T/C [13] of 102%, a viability, T/C [14] of 109% and a viability, T/C [15] of 27.9%. The viability, T/C [16] was 0.56%, the viability, T/C [17] was 0.14% and the viability, T/C [18] was 0.21%. It also gave a viability, T/C [19] of 93.6%, a viability, T/C [20] of 83% and a viability, T/C [21] of 31.8%. For the same molecule, the viability, T/C [22] was 1.83%, the viability, T/C [23] was 0.13% and the viability, T/C [24] was 0.18%. It also gave a viability, T/C [25] of 74.8%, a viability, T/C [26] of 91.3% and a viability, T/C [27] of 32.3%. It also gave a viability, T/C [28] of 0.19%, a viability, T/C [29] of 0.15% and a viability, T/C [30] of 0.16%. The viability, T/C [31] was 45.8%, the viability, T/C [32] was 11.5% and the viability, T/C [33] was 0.31%. It also gave a viability, T/C [34] of 0.22%, a viability, T/C [35] of 0.22% and a viability, T/C [36] of 0.23%.

Reference: PubChem BioAssay AID2060513 (Molecular Pharmacology Branch, DTP, NCI, 2025)
